Several values for one entry are separate records, joined by “and”; a condition that tells them apart may be missing. Identical values can stand only once. Entries after “also recorded” stand apart in the source; their conditions may differ.
Columns and labels:
[1] = target: T1, human A2AAR (Homo sapiens, UniProt P29274); experiment: cAMP functional assay; type: cell-based; conditions: HEK293 cells, intracellular cAMP, n=3
T1 construct: expressed in transfected cells; host or cells: HEK293 (membrane preparations)
Method: (§1) Functional assays measuring intracellular concentrations of cAMP were performed at the human A1AR and A2AAR to determine the efficacy of compounds 22 and 26. […]
cAMP assay. HEK293 cells were grown in DMEM supplemented with 10% fetal bovine serum, 100 Units/ml penicillin, 100 µg/ml streptomycin, and 2 µmol/ml glutamine. After 24 hours, cells were treated with assay buffer containing rolipram (10 µM), PSB603 (1 […]
The reaction was terminated upon removal of the supernatant, and addition of 100 µl Tween-20 (0.3%). Intracellular cAMP levels […]
(§2) were measured with an ALPHAScreen cAMP assay kit following the instructions from the manufacturer (PerkinElmer).

[2] = test system: human A1AR; experiment: Radioligand binding assay, displacement of [3H]DPCPX; conditions: A1AR versus A2AAR; for A1AR selectivity index: from Ki values
Method: (§3) Radioligand binding assays. HEK293 cells expressing the human A1- or A2AARs were cultured in DMEM supplemented with 10% fetal bovine serum, 100 Units/ml penicillin, 100 µg/ml streptomycin, and 2 µmol/ml glutamine. Cells were detached from plates by scraping into cold PBS and centrifuged at 250 g for 5 min. The pellets were resuspended in ice-cold Tris HCl buffer (50 mM, pH 7.4) and then homogenized. After homogenization and suspension, cells were centrifuged at 1000 g for 10 min, and the pellet was discarded.
(§4) The suspension was then re-centrifuged at 20,000 g for 60 min at 4 °C. The pellets were resuspended in buffer containing 3 Units/ml adenosine deaminase and incubated at 37°C for 30 min. The aliquots of membrane preparations were stored at −80°C until the binding experiments. For displacement binding assays, membrane preparations (20 µg proteins/tube) were incubated at 25°C for 60 min with a final concentration of [3H]DPCPX (0.5 nM) and [3H]ZM241385 (1.0 nM) for A1- and A2AARs, respectively, in a mixture containing 50 µL of increasing concentrations of a test ligand in a total assay volume of 200 µL of 50 mM Tris HCl, pH 7.4, containing 10 mM MgCl2. Nonspecific binding was determined using 100 µM of XAC. The reaction was terminated by filtration with GF/B filters using a Brandel 24-channel harvester. Filters were placed in scintillation vials containing 5 ml of Hydrofluor scintillation buffer and counted using a PerkinElmer Tricarb 2810TR liquid scintillation counter. […]
(§5) Table S1. Binding affinities of compounds 1-10 based on displacement of [3H]DPCPX and [3H]ZM241385 at the A1AR and A2AAR, respectively.
(§6) Compound Substituent A1AR A2AAR index […]
(§7) a Ki values are expressed as means ± SEM from (2-4) independent experiments. b Free energy of binding (ΔG) calculated from experimental binding affinities (kcal/mol) / Number of heavy atoms (HA). The ligand efficiency (LE) = −ΔG/HA. c Values from Matricon et al.8
(§8) Table S3. Binding affinities of compounds 11-26 based on displacement of [3H]DPCPX and […]
(§9) a K values are expressed as means ± SEM from (2-4) independent experiments.
(§10) Free energy of binding (ΔG) calculated from experimental binding affinities (kcal/mol) / Number of heavy

[3] = target: T2, human A1AR (Homo sapiens, UniProt P30542); experiment: as above; conditions: for Free energy of binding (ΔG) A1AR: calculated from experimental binding affinities; for ligand efficiency (LE, binding free energy per heavy atom): A1AR
T2 construct: expressed in transfected cells; host or cells: HEK293 (membrane preparations)
T2 sequence (P30542 1-326): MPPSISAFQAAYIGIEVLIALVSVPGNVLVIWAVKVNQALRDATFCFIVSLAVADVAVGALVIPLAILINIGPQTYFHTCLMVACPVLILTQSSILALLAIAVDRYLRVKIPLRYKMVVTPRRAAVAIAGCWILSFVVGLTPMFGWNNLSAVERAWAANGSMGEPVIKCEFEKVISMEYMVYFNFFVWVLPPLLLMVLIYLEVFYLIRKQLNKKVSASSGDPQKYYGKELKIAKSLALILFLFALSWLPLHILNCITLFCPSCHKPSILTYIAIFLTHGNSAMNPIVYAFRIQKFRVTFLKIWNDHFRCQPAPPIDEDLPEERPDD
Method: as §3, §4, §5, §6, §7, §8, §9, §10

[4] = target: T2, human A1AR; experiment: cAMP functional assay; type: cell-based; conditions: HEK293 cells, intracellular cAMP, n=3
Method: as §1
cAMP assay. HEK293 cells were grown in DMEM supplemented with 10% fetal bovine serum, 100 Units/ml penicillin, 100 µg/ml streptomycin, and 2 µmol/ml glutamine. After 24 hours, cells were treated with assay buffer containing rolipram (10 µM), PSB603 (1 µM) and adenosine deaminase (3 units/ml) for 30 min followed by the addition of antagonists for 20 min and subsequent addition of agonists and incubated for another 20 min. For the A1AR assay, after incubation with agonist for 20 min, forskolin (10 µM) was added and incubated for an additional 15 min. The reaction was terminated upon removal of the supernatant, and addition of 100 µl Tween-20 (0.3%). Intracellular cAMP levels […]
as §2

[5] = target: T1, human A2AAR; experiment: Radioligand binding assay, displacement of [3H]ZM241385; conditions: for Free energy of binding (ΔG) A2AAR: calculated from experimental binding affinities; for ΔΔG Experimental A2AAR: based on Table S3
Method: as §3, §4, §5, §6, §7, §8, §9, §10

[6] = target: hA1AR; design: method as in ChEMBL database; conditions: ligands with < 20 HA; ref ChEMBL database; cited from earlier work
[7] = target: hA2AAR; design: method as in ChEMBL database; conditions: ligands with < 20 HA; ref ChEMBL database; cited from earlier work
[8] = test system: hA1AR; experiment: Ki values of known ligands downloaded from the ChEMBL database; type: binding, human; conditions: from ChEMBL Ki values hA1AR and hA2AAR
Text: Table S5. Highest affinity human A1AR ligands (with < 20 HA) in the ChEMBL database compared to compound 22.a […]
a Known A1AR and A2AAR ligands with determined Ki values were downloaded from the ChEMBL database.
Compounds with motifs found in pan-assay interference compounds16 were excluded using OpenEye Toolkits 2020.2.0 OpenEye Scientific Software, Santa Fe, NM. http://www.eyesopen.com.

[9] = displacement of [3H]DPCPX, means ± SEM from 2-4 independent experiments
[10] = reference compound 5, based on Table S3
[11] = displacement of [3H]ZM241385, means ± SEM from 2-4 independent experiments
[12] = compound 1 as reference, based on Table S1

T1 sequence (P29274 whole entry): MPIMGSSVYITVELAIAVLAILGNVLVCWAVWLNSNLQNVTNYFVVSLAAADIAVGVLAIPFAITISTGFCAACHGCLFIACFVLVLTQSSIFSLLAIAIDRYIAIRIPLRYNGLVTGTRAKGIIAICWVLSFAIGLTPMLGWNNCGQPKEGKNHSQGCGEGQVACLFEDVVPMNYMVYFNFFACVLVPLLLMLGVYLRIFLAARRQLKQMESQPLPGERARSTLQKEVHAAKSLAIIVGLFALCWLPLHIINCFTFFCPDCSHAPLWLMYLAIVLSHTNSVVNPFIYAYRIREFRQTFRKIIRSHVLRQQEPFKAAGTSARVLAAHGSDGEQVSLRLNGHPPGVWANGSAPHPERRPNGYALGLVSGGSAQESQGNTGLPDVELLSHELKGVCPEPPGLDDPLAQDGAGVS

Row | SMILES | A1AR selectivity index [2] | Free energy of binding (ΔG) A1AR [3] [kcal/mol] | Ki [3, 9] | Free energy of binding (ΔG) A2AAR [5] [kcal/mol] | Ki [5, 11] [nM] | Ki [6] [nM] | other results
1 | COc1cccc2sc(NC(=O)c3ccccc3)nc12 [Compound 26] | 0.1 | -8.1 | 1330 nM and 1300 nM | -9.6 | – | – | efficacy in cAMP assay at A2AAR [1]: antagonists; also recorded: Antagonism; ΔΔG Experimental A1AR ([3]; reference compound 10, based on Table S3): 0.4 ± 0.3 kcal/mol; efficacy in cAMP assay at A1AR [4]: antagonists; also recorded: Antagonism; A2AAR selectivity ([5]; A2AAR versus A1AR): 13 fold; Ki ([5]; radioligand binding, Table S5): 106 nM; ΔΔG Experimental A2AAR ([5]; reference compound 10): –0.8 ± 0.1 kcal/mol
2 | Oc1nc2ccccc2n2nc(-c3cccs3)nc12 [CHEMBL328437] | – | – | – | – | – | 2 | –
3 | Cn1c(-n2nccn2)nc2c(N)ncnc21 [CHEMBL194728] | – | – | – | – | – | 0.4 | Ki [7]: 46.3 nM; A1AR selectivity [8]: 115.7
4 | Nc1nc2ccccc2n2nc(-c3ccco3)nc12 [CHEMBL261345] | – | – | – | – | – | 5.6 | Ki [7]: 11.2 nM; A1AR selectivity [8]: 2.0
5 | O=C(Nc1nc2ccccc2s1)C1CCCC1 [Compound 9] | 2.6 | -8.5 | – | -7.9 | 1610 ± 110 | – | ligand efficiency (LE, binding free energy per heavy atom) [3]: 0.50 kcal mol^−1 HA^−1; ΔΔG Experimental A1AR [3, 12]: –1.7 ± 0.2 kcal/mol; Ki ([3]; radioligand binding, Fig. 1, Table S5): 619 nM
6 | CCC(=O)Nc1nc2ccccc2s1 [Compound 2] | 1.8 | -7.5 | 3460 nM and 3500 nM | -7.1 | 6190 ± 3430 | – | ΔΔG Experimental A1AR [3, 12]: –0.7 ± 0.3 kcal/mol

Further lines, with some results ahead:

Row | A1AR selectivity index [2] | Free energy of binding (ΔG) A1AR [3] [kcal/mol] | Ki [3, 9] | Free energy of binding (ΔG) A2AAR [5] [kcal/mol] | Ki [5, 11] [nM] | SMILES | Ki [6] [nM] | other results
7 | 7.1 | -6.8 | – | -5.6 | – | CC(=O)Nc1nc2ccccc2s1 [Compound 1] | – | selectivity for the A1AR ([2]; Fig. 1): 7 fold; ligand efficiency (LE, binding free energy per heavy atom) [3]: 0.52 kcal mol^−1 HA^−1
8 | 25.2 | -9.1 | 223 ± 22 nM | -7.2 | 5630 ± 740 | CC(C)(C)C(=O)Nc1nc2cc(C#N)ccc2s1 [Compound 17] | – | ΔΔG Experimental A1AR [3, 10]: –0.2 ± 0.1 kcal/mol; ΔΔG Experimental A2AAR ([5]; reference compound 5): 0.8 ± 0.1 kcal/mol
9 | 19.1 | -9.8 | 76 ± 17 nM | -8.0 | 1450 ± 600 | Cc1ccc2sc(NC(=O)C(C)(C)C)nc2c1 [Compound 13] | – | ΔΔG Experimental A1AR [3, 10]: –0.8 ± 0.2 kcal/mol; ΔΔG Experimental A2AAR ([5]; reference compound 5): 0.0 ± 0.5 kcal/mol

Source: article PMC8603191, “Fragment-based design of selective GPCR ligands guided by free energy simulations” (Chemical communications (Cambridge, England), 2021)
